From patent US6858638B2, “Substituted indazoles, compositions containing them, method of production and use” (Aventis Pharma S.A., priority 2002, dated 2005) come the findings set out here.

Assay type in all cases: biochemical
The target in one assay is T1, human FAK (Homo sapiens, UniProt Q05397).
T1 construct: The complete cDNA of human FAK; made in house; host or cells: baculovirus expression system (vector pFastBac HTc)
Description: FAK autophosphorylation inhibition, time resolved fluorescence (HTRF) assay. To be noted: 10 μM (values without asterisk); for inhibition at 10 µM: read-out: FAK % inhib at 10 μM. In outline:
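His-tagged full-length human FAK from baculovirus (6.6 µg/ml) self-phosphorylates with 15 µM ATP in HEPES pH 7.2, MgCl2, vanadate, 1 h at 37 °C. HTRF detection (Eu-anti-phosphotyrosine / XL665-anti-His), 665/620 nm ratio; % inhibition vs untreated control, duplicate mean.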

The target of the next assay is T2, human KDR enzyme (Homo sapiens, UniProt P35968).
T2 construct: The cytoplasmic domain of the human KDR enzyme; GST; made in house; host or cells: SF21 insect cells (baculovirus)
T2 sequence (P35968 786-1356 limits assumed): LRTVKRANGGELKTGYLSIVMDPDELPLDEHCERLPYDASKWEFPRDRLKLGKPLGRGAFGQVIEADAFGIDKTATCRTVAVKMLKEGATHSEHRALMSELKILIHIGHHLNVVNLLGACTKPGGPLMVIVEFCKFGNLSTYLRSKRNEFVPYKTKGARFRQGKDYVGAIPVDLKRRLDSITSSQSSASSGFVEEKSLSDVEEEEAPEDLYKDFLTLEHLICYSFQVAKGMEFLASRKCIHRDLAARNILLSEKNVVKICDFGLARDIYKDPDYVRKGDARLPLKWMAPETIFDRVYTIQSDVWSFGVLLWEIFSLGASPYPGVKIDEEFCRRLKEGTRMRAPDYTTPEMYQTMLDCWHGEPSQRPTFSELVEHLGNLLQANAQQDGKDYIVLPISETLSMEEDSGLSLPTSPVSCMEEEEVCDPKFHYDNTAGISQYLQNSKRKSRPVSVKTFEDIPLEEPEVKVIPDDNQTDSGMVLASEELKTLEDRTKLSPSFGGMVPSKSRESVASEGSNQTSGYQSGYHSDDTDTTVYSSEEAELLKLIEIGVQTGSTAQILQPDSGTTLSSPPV
Description: KDR substrate (PLCγ) phosphorylation, scintillation assay. To be noted: 10 μM; read-out: KDR % inhib at 10 μM. In outline:
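GST-fused human KDR cytoplasmic domain from SF21 cells (about 60% pure, 100 ng) phosphorylated 2 μg of GST-PLCγ SH2-SH3 fragment. The trigger solution held γ33P-ATP with 2 μM cold ATP, in MOPS buffer pH 7.2 with Mg2+, Mn2+, vanadate and NaF. Reactions ran 1 h at 37 °C, were stopped with EDTA and counted by scintillation; results are % inhibition versus the no-compound control.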

Assay [1] concerns the target T3, human IGF1R cytoplasmic domain (Homo sapiens, UniProt P08069).
T3 construct: The human IGF1R cytoplasmic domain was cloned; made in house; host or cells: SF21 insect cells (baculovirus)
Description: IGF1R autophosphorylation inhibition, time resolved fluorescence (HTRF) assay. To be noted: 10 μM; read-out: IGF1R % inhib at 10 μM. In a few lines:
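GST-tagged human IGF1R cytoplasmic domain from SF21 cells incubated with compound in 50 mM Hepes pH 7.5, 5 mM MnCl2, 50 mM NaCl, […] ATP. Autophosphorylation detected by HTRF (Eu-K anti-phosphotyrosine, XL665 anti-GST) after EDTA/KF stop; percentage inhibition versus no-compound control.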
In general terms: TR-FRET usually uses a lanthanide donor and a delayed reading to cut background.

T1 sequence (Q05397 whole entry): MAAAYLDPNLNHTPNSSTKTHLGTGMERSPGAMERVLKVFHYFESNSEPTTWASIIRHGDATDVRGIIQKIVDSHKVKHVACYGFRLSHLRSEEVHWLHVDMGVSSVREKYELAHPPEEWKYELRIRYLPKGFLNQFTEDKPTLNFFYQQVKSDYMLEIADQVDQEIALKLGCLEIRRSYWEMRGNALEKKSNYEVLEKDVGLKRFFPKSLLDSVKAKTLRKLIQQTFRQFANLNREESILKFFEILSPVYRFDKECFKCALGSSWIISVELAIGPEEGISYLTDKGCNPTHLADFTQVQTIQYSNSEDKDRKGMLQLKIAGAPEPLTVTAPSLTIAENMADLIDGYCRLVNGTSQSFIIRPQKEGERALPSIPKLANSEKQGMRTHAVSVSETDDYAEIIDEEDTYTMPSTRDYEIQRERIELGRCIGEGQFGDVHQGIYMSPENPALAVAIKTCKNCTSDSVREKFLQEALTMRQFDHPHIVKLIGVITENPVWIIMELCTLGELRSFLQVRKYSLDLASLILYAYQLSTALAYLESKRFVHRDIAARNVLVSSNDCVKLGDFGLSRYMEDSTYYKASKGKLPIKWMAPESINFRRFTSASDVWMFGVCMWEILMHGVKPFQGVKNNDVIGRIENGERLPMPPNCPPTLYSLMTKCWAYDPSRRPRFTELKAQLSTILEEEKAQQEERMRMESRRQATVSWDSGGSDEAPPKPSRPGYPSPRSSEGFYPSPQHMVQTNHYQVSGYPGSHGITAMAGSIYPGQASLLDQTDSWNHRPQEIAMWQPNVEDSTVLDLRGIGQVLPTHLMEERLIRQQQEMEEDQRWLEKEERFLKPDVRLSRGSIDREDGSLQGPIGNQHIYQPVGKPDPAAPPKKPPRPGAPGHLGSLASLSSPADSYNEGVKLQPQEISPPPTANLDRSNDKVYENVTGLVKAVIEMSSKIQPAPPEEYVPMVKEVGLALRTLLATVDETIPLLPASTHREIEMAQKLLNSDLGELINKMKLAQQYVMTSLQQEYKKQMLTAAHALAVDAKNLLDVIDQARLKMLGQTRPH
T3 sequence (P08069 960-1367 limits assumed): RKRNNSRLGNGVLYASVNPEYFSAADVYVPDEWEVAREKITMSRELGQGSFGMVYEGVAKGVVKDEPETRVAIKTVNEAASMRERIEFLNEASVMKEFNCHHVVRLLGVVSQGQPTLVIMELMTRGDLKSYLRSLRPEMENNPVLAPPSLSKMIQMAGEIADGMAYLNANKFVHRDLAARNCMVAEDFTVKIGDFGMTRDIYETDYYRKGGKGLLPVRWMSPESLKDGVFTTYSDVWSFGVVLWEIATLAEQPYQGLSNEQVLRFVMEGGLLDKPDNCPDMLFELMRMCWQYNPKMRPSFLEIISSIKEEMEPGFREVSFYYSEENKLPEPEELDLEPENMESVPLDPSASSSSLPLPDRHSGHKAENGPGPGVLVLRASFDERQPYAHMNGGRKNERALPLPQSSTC

For `Cc1cc2[nH]nc(-c3ccccc3)c2cc1NS(=O)(=O)c1ccccc1S(C)(=O)=O` [Example 92, 2-Methylsulfonyl-N-(6-methyl-3-phenyl-1H-indazol-5-yl)-benzenesulfonamide], the values for the inhibition at 10 µM (at human FAK; on human KDR enzyme; in assay [1]) were 27%, 66% and 62%, respectively.

Regarding `Nc1n[nH]c2ccc(NS(=O)(=O)c3c(F)cccc3F)cc12` [Example 40, N-(3-Amino-1H-indazol-5-yl)-2,6-difluorobenzenesulfonamide], the inhibition at 10 µM came out at 55% on human FAK, 22% on human KDR enzyme and 12% in assay [1].

As for `O=S(=O)(Nc1ccc2[nH]nc(-c3cc4ccccc4[nH]3)c2c1)c1ccccc1OC(F)(F)F` [Example 84, N-[3-(1H-Indol-2-yl)-1H-indazol-5-yl]-2-trifluoromethoxybenzenesulfonamide], the inhibition at 10 µM on human FAK was 90%; on human KDR enzyme, 98%; in assay [1] it was 94%.

Turning to `CS(=O)(=O)c1ccccc1S(=O)(=O)Nc1ccc2[nH]nc(Sc3ccccc3)c2c1` [Example 88, 2-Methylsulfonyl-N-(3-phenylsulfanyl-1H-indazol-5-yl)-benzenesulfonamide], the figures for the inhibition at 10 µM (at human FAK; on human KDR enzyme; in assay [1]) were 21%, 25% and 82%, respectively.

On to `COc1ccc(-c2n[nH]c3ccc(NS(=O)(=O)c4ccccc4S(C)(=O)=O)cc23)cc1` [Example 32, N-[3-(4-Methoxyphenyl)-1H-indazol-5-yl]-2-methylsulfonylbenzenesulfonamide], for which the inhibition at 10 µM at human FAK was found to be 97%; at human KDR enzyme, 87%; in assay [1], 93%.

Consider `COc1ccc(OC)c(S(=O)(=O)Nc2ccc3[nH]nc(-c4ccccc4)c3c2)c1` [Example 131, 2,5-Dimethoxy-N-(3-phenyl-1H-indazol-5-yl)-benzenesulfonamide], for which the inhibition at 10 µM came out at 64% at human FAK, 95% at human KDR enzyme and 51% in assay [1].

`CN(C)c1ccc(-c2n[nH]c3ccc(NS(=O)(=O)c4ccccc4S(C)(=O)=O)cc23)cc1` [Example 63, N-[3-(4-Dimethylaminophenyl)-1H-indazol-5-yl]-2-methylsulfonylbenzenesulfonamide]: the values for the inhibition at 10 µM (on human FAK; at human KDR enzyme; in assay [1]) were 94%, 0% and 81%, respectively.

With `Nc1n[nH]c2ccc(NS(=O)(=O)c3c(Cl)cccc3Cl)cc12` [Example 41, N-(3-Amino-1H-indazol-5-yl)-2,6-dichlorobenzenesulfonamide], the inhibition at 10 µM on human FAK came to 71%; at human KDR enzyme, 36%; in assay [1] it was 18%.

For the molecule `O=S(=O)(Nc1ccc2[nH]nc(-c3ccccc3)c2c1)c1cc(F)cc(F)c1` [Example 158, 3,5-Difluoro-N-(3-phenyl-1H-indazol-5-yl)-benzenesulfonamide], the inhibition at 10 µM at human FAK was 95%; on human KDR enzyme it was 96%; in assay [1], 68%.

With `CS(=O)(=O)c1ccccc1S(=O)(=O)Nc1ccc2[nH]nc(-c3nc4ccccc4[nH]3)c2c1` [Example 81, N-[3-(1H-Benzimidazol-2-yl)-1H-indazol-5-yl]-2-methylsulfonylbenzenesulfonamide], the inhibition at 10 µM came to 98% on human FAK, 93% at human KDR enzyme and 99% in assay [1].

`CS(=O)(=O)c1ccccc1S(=O)(=O)Nc1ccc2[nH]nc(-c3ccco3)c2c1` [Example 53, N-(3-Furan-2-yl-1H-indazol-5-yl)-2-methylsulfonylbenzenesulfonamide]: the inhibition at 10 µM at human FAK worked out at 96%; at human KDR enzyme, 42%; in assay [1], 76%.

For the molecule `CS(=O)(=O)c1ccccc1S(=O)(=O)Nc1ccc2[nH]nc(-c3ccc(Cl)cc3)c2c1` [Example 30, N-[3-(4-Chlorophenyl)-1H-indazol-5-yl]-2-methylsulfonylbenzenesulfonamide], the inhibition at 10 µM on human FAK worked out at 88%; on human KDR enzyme, 85%; in assay [1] it was 96%.

As for `CS(=O)(=O)c1ccccc1S(=O)(=O)Nc1ccc2[nH]nc(/C=C/c3ccc(Cl)cc3)c2c1` [Example 76, N-{3-[(E)-2-(4-Chlorophenyl)vinyl]-1H-indazol-5-yl}-2-methylsulfonylbenzenesulfonamide], the inhibition at 10 µM at human FAK is 96%; on human KDR enzyme, 92%; in assay [1] it was 96%.

`CS(=O)(=O)c1ccccc1S(=O)(=O)Nc1ccc2[nH]nc(-c3ccncc3)c2c1` [Example 54, 2-Methylsulfonyl-N-(3-pyridin-4-yl-1H-indazol-5-yl)benzenesulfonamide]: the inhibition at 10 µM worked out at 96% on human FAK, 76% on human KDR enzyme and 87% in assay [1].

Consider `CS(=O)(=O)c1ccccc1S(=O)(=O)Nc1ccc2[nH]nc(-c3ccoc3)c2c1` [Example 52, N-(3-Furan-3-yl-1H-indazol-5-yl)-2-methylsulfonylbenzenesulfonamide], for which the inhibition at 10 µM at human FAK came to 93%; at human KDR enzyme, 49%; in assay [1], 80%.

Consider `O=C(O)c1cccc(S(=O)(=O)Nc2ccc3[nH]nc(-c4ccccc4)c3c2)c1` [Example 133, 3-(3-Phenyl-1H-indazol-5-ylsulfamoyl)benzoic acid], for which the inhibition at 10 µM on human FAK stood at 12%; on human KDR enzyme, 96%; in assay [1] it was 40%.

Consider `O=[N+]([O-])c1ccccc1S(=O)(=O)Nc1ccc2[nH]nc(-c3ccccc3)c2c1` [Example 113, 2-Nitro-N-(3-phenyl-1H-indazol-5-yl)benzenesulfonamide], for which the inhibition at 10 µM on human FAK was determined as 73%; on human KDR enzyme, 88%; in assay [1], 81%.

As for `CS(=O)(=O)c1ccccc1S(=O)(=O)Nc1ccc2[nH]nc(-c3ccc[nH]3)c2c1` [Example 60, 2-Methylsulfonyl-N-[3-(1H-pyrrol-2-yl)-1H-indazol-5-yl]benzenesulfonamide], the values for the inhibition at 10 µM (on human FAK; at human KDR enzyme; in assay [1]) were 99%, 64% and 99%, respectively.

As for `CC(=O)Nc1ccc(S(=O)(=O)Nc2ccc3[nH]nc(-c4ccccc4)c3c2)cc1` [Example 95, N-[4-(3-Phenyl-1H-indazol-5-ylsulfamoyl)phenyl]acetamide], on human FAK (10 µM), the “FAK % inhib at 10 μM” value is 0%. The inhibition at 10 µM at human KDR enzyme came to 34%; in assay [1] it was 73%.

Turning to `O=S(=O)(Nc1ccc2[nH]nc(-c3ccccc3)c2c1)c1ccccc1` [Example 112, N-(3-Phenyl-1H-indazol-5-yl)benzenesulfonamide], the inhibition at 10 µM amounted to 75% at human FAK, 93% on human KDR enzyme and 84% in assay [1].

For `CS(=O)(=O)c1ccccc1S(=O)(=O)Nc1ccc2[nH]nc(-c3cc4ccccc4s3)c2c1` [Example 65, N-(3-Benzo[b]thiophen-2-yl-1H-indazol-5-yl)-2-methylsulfonylbenzenesulfonamide], the results for the inhibition at 10 µM (at human FAK; on human KDR enzyme; in assay [1]) were 86%, 73% and 63%, respectively.

Turning to `Nc1ccc(S(=O)(=O)Nc2ccc3[nH]nc(-c4ccccc4)c3c2)cc1` [Example 94, 4-Amino-N-(3-phenyl-1H-indazol-5-yl)benzenesulfonamide], the results for the inhibition at 10 µM (at human FAK; at human KDR enzyme; in assay [1]) were 36%, 88% and 70%, respectively.
